# Results: ChEMBL document CHEMBL4229476, “Studies directed toward the asialoglycoprotein receptor mediated delivery of 5-fluoro-2'-deoxyuridine for hepatocellular carcinoma” (Bioorg Med Chem Lett, 2018)
# Active and inactive are the calls of the source. The calls are words filed in the database; no cut-off is given here.
# System: HepG2
# Assay: Cytotoxicity against human HepG2 cells at 1.5 to 200 uM after 72 hrs by WST1 assay
# Format: functional, cell-based
row,Compound,Activity
1,O=c1[nH]c(=O)n([C@H]2C[C@H](O)[C@@H](CO)O2)cc1F,Active
2,CC(=O)N[C@H]1[C@H](OCCCCCCNC(=O)CCOCC(COCCC(=O)NCCCCCCO[C@@H]2O[C@H](CO)[C@H](O)[C@H](O)[C@H]2NC(C)=O)(COCCC(=O)NCCCCCCO[C@@H]2O[C@H](CO)[C@H](O)[C@H](O)[C@H]2NC(C)=O)NC(=O)CCCC(=O)NCCCCCCOP(=O)(O)OC[C@H]2O[C@@H](n3cc(F)c(=O)[nH]c3=O)C[C@@H]2O)O[C@H](CO)[C@H](O)[C@@H]1O,Active
